{"source": "ChEMBL document CHEMBL1125859", "about": "“Synthesis and evaluation of antiinflammatory activities of a series of corticosteroid 17 alpha-esters containing a functional group” (J Med Chem, 1991)", "key": {"Glucocorticoid receptor": {"biological_target": "T1, Glucocorticoid receptor (Rattus norvegicus, UniProt P06536)", "T1 sequence (P06536 whole entry)": "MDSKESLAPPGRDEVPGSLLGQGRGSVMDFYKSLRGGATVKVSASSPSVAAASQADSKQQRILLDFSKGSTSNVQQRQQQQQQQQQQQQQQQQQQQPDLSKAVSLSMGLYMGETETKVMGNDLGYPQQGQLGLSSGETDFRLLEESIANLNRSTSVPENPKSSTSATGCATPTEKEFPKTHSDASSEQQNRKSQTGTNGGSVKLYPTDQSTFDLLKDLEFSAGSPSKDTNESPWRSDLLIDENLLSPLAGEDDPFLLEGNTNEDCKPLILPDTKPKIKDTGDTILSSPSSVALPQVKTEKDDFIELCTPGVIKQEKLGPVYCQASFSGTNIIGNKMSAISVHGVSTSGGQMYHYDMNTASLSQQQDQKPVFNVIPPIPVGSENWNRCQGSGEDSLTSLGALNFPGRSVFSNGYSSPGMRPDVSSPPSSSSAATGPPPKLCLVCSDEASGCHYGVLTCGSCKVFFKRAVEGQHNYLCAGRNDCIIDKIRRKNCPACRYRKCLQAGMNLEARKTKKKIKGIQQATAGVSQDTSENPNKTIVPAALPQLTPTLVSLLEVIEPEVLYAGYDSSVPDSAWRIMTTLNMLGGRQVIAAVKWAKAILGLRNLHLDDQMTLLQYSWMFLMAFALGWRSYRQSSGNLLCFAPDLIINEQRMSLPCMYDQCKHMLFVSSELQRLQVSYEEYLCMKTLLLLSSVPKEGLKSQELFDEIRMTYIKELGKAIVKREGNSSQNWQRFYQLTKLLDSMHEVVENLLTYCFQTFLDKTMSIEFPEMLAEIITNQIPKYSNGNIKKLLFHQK", "assay": "Competitive displacement of [3H]dexamethasone from glucocorticoid receptor of rat liver cytosol"}, "Mus musculus": {"organism": "Mus musculus", "assay": "Anti-inflammatory activity in mouse croton oil ear assay relative to clobetasol propionate", "type": "functional"}, "[1]": {"assay": "It is the ratio of topical(edema inhibition) to systemic (thymolysis) activities.", "type": "functional"}, "Rattus norvegicus [2]": {"organism": "Rattus norvegicus", "assay": "The thymolytic activity was measured relative to clobetasol propionate (CP=1) in rat granuloma pouch assay system; granuloma inhibition or thymolytic activity was not detected up to 100 ug/pouch", "type": "functional"}, "Rattus norvegicus [3]": {"organism": "Rattus norvegicus", "assay": "The thymolytic activity was measured relative to clobetasol propionate (CP=1) in rat granuloma pouch assay system", "type": "functional"}}}
{"smiles": "CCOC(=O)CCCC(=O)O[C@]1(C(=O)CCl)[C@@H](C)CC2C3CCC4=CC(=O)C=CC4(C)[C@@]3(F)[C@@H](O)CC21C", "note": "(stereo not given in full)", "values": [{"measurement": "IC50", "setting": "Glucocorticoid receptor", "value": 9.68, "unit": "nM"}, {"measurement": "Fold_activity", "setting": "Mus musculus", "value": 0.68}]}
{"smiles": "CC(C)OC(=O)CCC(=O)O[C@]1(C(=O)CCl)[C@@H](C)CC2C3CCC4=CC(=O)C=CC4(C)[C@@]3(F)[C@@H](O)CC21C", "note": "(stereo not given in full)", "values": [{"measurement": "IC50", "setting": "Glucocorticoid receptor", "value": 12.1, "unit": "nM"}, {"measurement": "Fold_activity", "setting": "Mus musculus", "value": 0.11}]}
{"smiles": "COC(=O)CCC(=O)O[C@]1(C(=O)CCl)[C@@H](C)CC2C3CCC4=CC(=O)C=CC4(C)[C@@]3(F)[C@@H](O)CC21C", "note": "(stereo not given in full)", "values": [{"measurement": "Ratio", "setting": "[1]", "value": "> 130"}, {"measurement": "Thymolysis", "setting": "Rattus norvegicus [2]", "value": "< 0.01"}, {"measurement": "IC50", "setting": "Glucocorticoid receptor", "value": 5.18, "unit": "nM"}, {"measurement": "Fold_activity", "setting": "Mus musculus", "value": 1.3}]}
{"smiles": "C[C@H]1CC2C3CCC4=CC(=O)C=CC4(C)[C@@]3(F)[C@@H](O)CC2(C)[C@@]1(OC(=O)CCCCl)C(=O)CCl", "note": "(stereo not given in full)", "values": [{"measurement": "Ratio", "setting": "[1]", "value": 5.5}, {"measurement": "Thymolysis", "setting": "Rattus norvegicus [3]", "value": 0.12}, {"measurement": "Fold_activity", "setting": "Mus musculus", "value": 0.66}]}
{"smiles": "CSCC(=O)O[C@]1(C(=O)CCl)[C@@H](C)CC2C3CCC4=CC(=O)C=CC4(C)[C@@]3(F)[C@@H](O)CC21C", "note": "(stereo not given in full)", "values": [{"measurement": "Ratio", "setting": "[1]", "value": 1}, {"measurement": "Thymolysis", "setting": "Rattus norvegicus [3]", "value": 0.35}, {"measurement": "Fold_activity", "setting": "Mus musculus", "value": 0.35}]}
{"smiles": "C[C@H]1CC2C3CCC4=CC(=O)C=CC4(C)[C@@]3(F)[C@@H](O)CC2(C)[C@@]1(OC(=O)CC1CC1)C(=O)CCl", "note": "(stereo not given in full)", "values": [{"measurement": "Ratio", "setting": "[1]", "value": 0.46}, {"measurement": "Thymolysis", "setting": "Rattus norvegicus [3]", "value": 1.1}, {"measurement": "Fold_activity", "setting": "Mus musculus", "value": 0.51}]}
{"smiles": "CCC(=O)O[C@]1(C(=O)CCl)[C@@H](C)C[C@H]2[C@@H]3CCC4=CC(=O)C=C[C@]4(C)[C@@]3(F)[C@@H](O)C[C@@]21C", "note": "[CLOBETASOL PROPIONATE]", "values": [{"measurement": "Ratio", "setting": "[1]", "value": 1}, {"measurement": "IC50", "setting": "Glucocorticoid receptor", "value": 3.17, "unit": "nM"}, {"measurement": "Thymolysis", "setting": "Rattus norvegicus [3]", "value": 1}, {"measurement": "Fold_activity", "setting": "Mus musculus", "value": 1}]}
{"smiles": "CCOC(=O)CCC(=O)O[C@]1(C(=O)CCl)[C@@H](C)CC2C3CCC4=CC(=O)C=CC4(C)[C@@]3(F)[C@@H](O)CC21C", "note": "(stereo not given in full)", "values": [{"measurement": "Fold_activity", "setting": "Mus musculus", "value": 0.56}]}
{"smiles": "C[C@H]1CC2C3CCC4=CC(=O)C=CC4(C)[C@@]3(F)[C@@H](O)CC2(C)[C@@]1(OC(=O)CCC(=O)OC(C)(C)C)C(=O)CCl", "note": "(stereo not given in full)", "values": [{"measurement": "IC50", "setting": "Glucocorticoid receptor", "value": 10.8, "unit": "nM"}, {"measurement": "Fold_activity", "setting": "Mus musculus", "value": 0.19}]}
{"smiles": "CC(=O)OCCC(=O)O[C@]1(C(=O)CCl)[C@@H](C)CC2C3CCC4=CC(=O)C=CC4(C)[C@@]3(F)[C@@H](O)CC21C", "note": "(stereo not given in full)", "values": [{"measurement": "Ratio", "setting": "[1]", "value": 18.6}, {"measurement": "Thymolysis", "setting": "Rattus norvegicus [3]", "value": 0.015}, {"measurement": "Fold_activity", "setting": "Mus musculus", "value": 0.28}]}
{"smiles": "C[C@H]1CC2C3CCC4=CC(=O)C=CC4(C)[C@@]3(F)[C@@H](O)CC2(C)[C@@]1(OC(=O)C1CC1)C(=O)CCl", "note": "(stereo not given in full)", "values": [{"measurement": "Ratio", "setting": "[1]", "value": 0.34}, {"measurement": "Thymolysis", "setting": "Rattus norvegicus [3]", "value": 1.3}, {"measurement": "Fold_activity", "setting": "Mus musculus", "value": 0.44}]}
{"smiles": "COC(=O)CCCC(=O)O[C@]1(C(=O)CCl)[C@@H](C)CC2C3CCC4=CC(=O)C=CC4(C)[C@@]3(F)[C@@H](O)CC21C", "note": "(stereo not given in full)", "values": [{"measurement": "Fold_activity", "setting": "Mus musculus", "value": 0.45}]}
{"smiles": "CCC(=O)OCC(=O)[C@@]1(OC(=O)CC)[C@@H](C)C[C@H]2[C@@H]3CCC4=CC(=O)C=C[C@]4(C)[C@@]3(F)[C@@H](O)C[C@@]21C", "note": "[BETAMETHASONE DIPROPIONATE]", "values": [{"measurement": "Thymolysis", "setting": "Rattus norvegicus [3]", "value": 0.03}]}
{"smiles": "C[C@H]1CC2C3CCC4=CC(=O)C=CC4(C)[C@@]3(F)[C@@H](O)CC2(C)[C@@]1(OC(=O)CCC#N)C(=O)CCl", "note": "(stereo not given in full)", "values": [{"measurement": "Fold_activity", "setting": "Mus musculus", "value": 0.07}]}
{"smiles": "C[C@H]1CC2C3CCC4=CC(=O)C=CC4(C)[C@@]3(F)[C@@H](O)CC2(C)[C@@]1(OC(=O)CCl)C(=O)CCl", "note": "(stereo not given in full)", "values": [{"measurement": "Fold_activity", "setting": "Mus musculus", "value": 0.25}]}
{"smiles": "COCC(=O)O[C@]1(C(=O)CCl)[C@@H](C)CC2C3CCC4=CC(=O)C=CC4(C)[C@@]3(F)[C@@H](O)CC21C", "note": "(stereo not given in full)", "values": [{"measurement": "Fold_activity", "setting": "Mus musculus", "value": 0.11}]}
{"smiles": "C[C@H]1CC2C3CCC4=CC(=O)C=CC4(C)[C@@]3(F)[C@@H](O)CC2(C)[C@@]1(OC(=O)CCC(=O)O)C(=O)CCl", "note": "(stereo not given in full)", "values": [{"measurement": "IC50", "setting": "Glucocorticoid receptor", "value": "> 150", "unit": "nM"}, {"measurement": "Fold_activity", "setting": "Mus musculus", "value": "<0.01"}]}
{"smiles": "COCCC(=O)O[C@]1(C(=O)CCl)[C@@H](C)CC2C3CCC4=CC(=O)C=CC4(C)[C@@]3(F)[C@@H](O)CC21C", "note": "(stereo not given in full)", "values": [{"measurement": "Ratio", "setting": "[1]", "value": 7.6}, {"measurement": "Thymolysis", "setting": "Rattus norvegicus [3]", "value": 0.05}, {"measurement": "Fold_activity", "setting": "Mus musculus", "value": 0.38}]}
